SMILES strings stand for the structures.

Assay [1] deals with T1, 14-3-3 protein beta/alpha (YWHAB) (Homo sapiens, UniProt P31946).
T1 construct: endogenous in cells; host or cells: human blood leukocytes, labelled live
Briefly: PISA of neutrophil lysates (Data S2). Type of assay: binding. The following applies: Comparison NA11_MidT-DMSO_MidT. On the procedure: (§1) Neutrophils (3 × 10^7) were treated with 50 nM PMA for 20 min. Cell were washed twice in D-PBS, resuspended in KB buffer (25 mM Tris-HCL pH 7.5, 1 mM DTT, 10 mM MgCl2) and frozen in liquid nitrogen. Lysates were prepared by 5-7 freeze-thaw cycles in KB buffer. Protein concentration was determined via Bradford assay and lysates were incubated on ice for 30 min with either 10 μM NA-11 or DMSO vehicle. Samples were analyzed in two formats: (1) classical thermal proteome profiling (TPP) with full melting curves using 16-plex TMT labeling (8 temperatures between 37-65°C), and (2) Proteome Integral Solubility Alteration (PISA) assay with aggregated protein abundance from a defined temperature range using 10-plex TMT labeling (Five replicates 44-58°C). Aliquots (5 mg) were divided and heated at 8 temperatures in the 37-65°C range or 6 temperatures in the 44-58°C range, and cooled on ice for 3 min.
(§2) For TPP, heated lysates from different temperatures were kept separate. For PISA, lysates from different temperatures were combined based on treatment. Samples were centrifuged at 20,000 x g for 20 min at 4°C and supernatants were isolated for analysis. Proteins were denatured in 4 M urea, reduced with 5 mM DTT at 60°C for 20 min, and alkylated with 11 mM iodoacetamide (IAA) for 20 min. Urea was diluted to 2 M with 20 mM HEPES. Proteins were digested with Lys-C (Wako) diluted 1:50 for 3 h at 37°C, and then with Trypsin (PTMScan) diluted 1:100 overnight at 37°C. Peptides were cleaned on C18 Sep-Pak cartridges, 50 mg absorbent (Waters, WAT054960) and labeled with 16-plex TMTpro or 10-plex TMT. Labeled peptides were pooled, cleaned on a C18 Sep-Pak cartridge, and fractionated by offline high pH reversed phase separation and combined into 12 fractions in checkerboard fashion. Peptides were cleared on C18 STAGE-tips before mass spectrometry.
(§3) For the classical TPP, quantitative data from each temperature were used to generate a thermal titration curve and calculate a melting point. PSM level quantitation was log2 transformed and summarized to protein level by aggregating all PSMs from the same primary Uniprot reference, and systematic variation between the treatments was normalized at each temperature. A thermal titration curve was fitted from experimental data for each protein and for each treatment condition using Self-Starting Nls Four-Parameter Logistic Model from stats v3.6.2 in R. Melting point was calculated at the 50% between intensity at the lowest temperature and intensity at the highest temperature. A quality score is calculated for each protein by evaluating R squares, curve slopes and similarity in slopes between the two fitted curves. For the PISA experiment, quantitative data from each replicate of combined temperatures were used to calculate fold changes and p values between the treatment conditions. Quantified PSMs were normalized based on global median abundance among all PSMs, and then summarized to the protein level using statistical package MSstats_3.14.1 ([Choi et al., 2014]). Fold changes and p values were calculated between pre-defined treatment groups by the MSstats package. For the photoaffinity probe based pull-down study, pairwise differential analysis was applied to treatment groups. TMT abundance of all PSMs was aggregated to their respective proteins. Ratios between each treatment group were calculated based on their mean protein abundance from replicates and a Student’s t test was applied to each pair to calculate p values. […]

Assay [2] has as its target T2, 14-3-3 protein eta (YWHAH) (Homo sapiens, UniProt Q04917).
T2 construct: endogenous in cells; host or cells: human neutrophil lysate
The assay is described as follows: PISA of neutrophil lysates (Data S2). Type of assay: binding. The note with it: Comparison NA11_MidT-DMSO_MidT. On the procedure:
as §1, §2, §3

For assay [3], the target named is T3, 14-3-3 protein gamma (YWHAG) (Homo sapiens, UniProt P61981).
T3 construct: endogenous in cells; host or cells: human neutrophil lysate
Briefly: PISA of neutrophil lysates (Data S2). The assay is classed as binding. The following applies: Comparison NA11_MidT-DMSO_MidT. Here is the method: as §1, §2, §3

For assay [4], the target named is T4, 14-3-3 protein epsilon (YWHAE) (Homo sapiens, UniProt P62258).
T4 construct: endogenous in cells; host or cells: human blood leukocytes, labelled live
The assay is described as follows: PISA of neutrophil lysates (Data S2). The note with it: Comparison NA11_MidT-DMSO_MidT. The assay is classed as binding. On the procedure: as §1, §2, §3

Assay [5] deals with T5, 14-3-3 protein theta (YWHAQ) (Homo sapiens, UniProt P27348).
T5 construct: endogenous in cells; host or cells: human neutrophil lysate
Briefly: PISA of neutrophil lysates (Data S2). Type of assay: binding. The note with it: Comparison NA11_MidT-DMSO_MidT. On the procedure: as §1, §2, §3

The subject of the next assay is PMNs. Briefly: Phagocytosis of zymosan particles by PMNs. The following applies: neutrophils, zymosan 2 h. The assay is classed as cell-based, human. On the procedure:
Figure S7. NA-11 activates PFKL to prevent the oxidative burst and impair neutrophil defenses, related to Figures 4 and 6
(A) PFK1 activity in PMN lysates. Cells were pretreated with 0.5 mM NA-11, 5 mM LDC7559, 100 mM apocynin, 200 mM thionicotinamid e (TN), 1 mM MEK inhibitor U0126, or DMSO vehicle for 30 min, or 1 mM proteasome inhibitor bortezomib for 1 h, and then activated with 50 nM PMA for 30 min where indicated. Bars represent the mean ± s.d. of cells from 3 donors. (B) NADH:NAD+ ratio in PMA-activated PMNs. Cells were pretreated with 0.5 mM NA-11 or DMSO vehicle for 30 min, and then activated with 50 nM PMA for 30 min. Data are the mean ± s.d. of cells from 3 donors. (C) Immunolabeling of citrullinated histone H3 (magenta) and myeloperoxidase (red) in PMNs pretreated with 0.5 mM NA-11 or DMSO vehicle for 30 min and then stimulated for 4 h with 50 nM PMA, 10 mg/mL extracellular LPS, 0.5 mg/mL cholesterol crystals, or 25 mM nigericin. Chromatin is stained green. Scale bar, […]. Results are representative of 3 independent experiments.
(D) Fluorescence micrographs of PMNs pretreated with 0.5 mM NA-11, 200 mM thionicotinamide (TN), 0.5 mM NA-4, or DMSO vehicle for 30 min, and then incubated with serum-opsonized Texas Red-conjugated zymosan particles (10 mg/mL) for 2 h. […]

T3 sequence (P61981 whole entry): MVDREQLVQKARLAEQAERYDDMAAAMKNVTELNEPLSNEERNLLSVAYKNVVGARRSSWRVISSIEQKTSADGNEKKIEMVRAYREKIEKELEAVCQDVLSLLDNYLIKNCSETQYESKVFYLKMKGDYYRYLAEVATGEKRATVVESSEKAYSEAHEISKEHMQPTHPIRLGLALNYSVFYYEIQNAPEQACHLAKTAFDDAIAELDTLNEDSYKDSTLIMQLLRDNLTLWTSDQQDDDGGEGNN
T5 sequence (P27348 whole entry): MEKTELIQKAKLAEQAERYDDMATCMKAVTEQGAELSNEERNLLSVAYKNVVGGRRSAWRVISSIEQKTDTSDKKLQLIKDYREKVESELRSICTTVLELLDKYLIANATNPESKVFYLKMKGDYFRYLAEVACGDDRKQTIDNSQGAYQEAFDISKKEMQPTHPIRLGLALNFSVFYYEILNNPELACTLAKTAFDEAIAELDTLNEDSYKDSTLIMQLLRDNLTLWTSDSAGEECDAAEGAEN
T1 sequence (P31946 whole entry): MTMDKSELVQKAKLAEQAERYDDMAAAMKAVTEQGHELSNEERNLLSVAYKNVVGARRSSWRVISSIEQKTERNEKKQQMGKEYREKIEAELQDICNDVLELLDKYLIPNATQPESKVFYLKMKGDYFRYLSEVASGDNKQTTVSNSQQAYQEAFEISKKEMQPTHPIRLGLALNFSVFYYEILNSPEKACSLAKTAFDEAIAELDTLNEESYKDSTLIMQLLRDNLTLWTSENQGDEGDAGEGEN
T4 sequence (P62258 whole entry): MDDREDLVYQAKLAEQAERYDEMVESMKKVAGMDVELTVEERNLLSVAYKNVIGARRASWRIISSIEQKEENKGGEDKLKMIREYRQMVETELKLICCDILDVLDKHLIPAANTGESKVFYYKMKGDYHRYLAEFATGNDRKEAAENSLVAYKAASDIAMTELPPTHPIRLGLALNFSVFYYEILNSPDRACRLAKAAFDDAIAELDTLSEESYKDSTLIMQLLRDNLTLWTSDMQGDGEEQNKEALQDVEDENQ
T2 sequence (Q04917 whole entry): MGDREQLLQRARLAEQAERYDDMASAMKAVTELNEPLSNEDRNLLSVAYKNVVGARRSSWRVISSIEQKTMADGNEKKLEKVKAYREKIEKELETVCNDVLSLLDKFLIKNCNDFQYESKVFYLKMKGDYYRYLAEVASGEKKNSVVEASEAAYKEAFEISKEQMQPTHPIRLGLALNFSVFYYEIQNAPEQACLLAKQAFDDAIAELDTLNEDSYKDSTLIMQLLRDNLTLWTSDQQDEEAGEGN

`CC(=O)Nc1ccc2c(c1)OCc1cc(-c3ccccc3C#CCCCO)nn1C2` [NA-11]: the log2FC in assay [1] is -0.07; in assay [2], 0.0948; in assay [3], 0.0136; in assay [4], -0.04; in assay [5], -0.18. Moreover, the “phagocytosis (intracellular zymosan particles)” value in the assay with PMNs was “neither NA-11 nor TN affected phagocytosis”.

Values taken from PMC8802628, “Selective activation of PFKL suppresses the phagocytic oxidative burst” (Cell, 2021).
